Data set [1] concerns SJ-N-KP. The data set can be described thus: In vitro cytotoxicity assay (MTT), neuroblastoma SJ-N-KP. Particulars: 72 hrs exposure, medium with 10% inactivated FBS. It counts as cell-based, human. The procedure: (§1) In vitro cytotoxicity assays were conducted on different tumour cell lines, also of neuroectodermal origin. Purpose of said assays was also to check the compounds cytotoxic action and specificity. […] The aforesaid cells were assayed with the following compounds: • AM: ester of maleic acid (ex. 1) dissolved in DMSO • AS: ester of succinic acid (ex. 2) dissolved in DMSO • ADG: ester of diglycolic acid (ex. 3) dissolved in DMSO • AF: ester of phthalic acid (ex. 4) dissolved in DMSO • ABT: […] AE phosphoric ester (ex.12) dissolved in HEPES • AED: AE acetal with daunosamine (ex.13) dissolved in HEPES The cells, cultured according to known methods, were seeded 24 hrs prior to treatment with the various derivatives at a concentration of 1000 cells/100 μl. For molecules dissolved in dimethylsulphoxide, DMSO, the concentration of the initial stock was 200 mM and for molecules dissolved in a HEPES buffer and in the physiological solution was 1 mM. […] For each assay, a control was carried out with the medium alone (RPMI with 10% inactivated fetal bovine serum, FBS, and 1% penicillin/streptomycin). […] The cells viability was assessed by the MTT dye assay. […] The EC50 values (μM) referred to each compound and cell line are given.

The test system of data set [2] is IMR5. The data set can be described thus: In vitro cytotoxicity assay (MTT), neuroblastoma IMR-5. Type of data set: cell-based, human. The conditions noted are these: medium with 10% inactivated FBS. The procedure: as §1
Data set [3] relates to LoVo 109. Put plainly: In vitro cytotoxicity assay (MTT), colon adenocarcinoma LoVo 109. It counts as cell-based, human. Particulars: 72 hrs exposure, medium with 10% inactivated FBS. The procedure: as §1
In data set [4] the test system is SJ-N-KP. Put plainly: In vitro cytotoxicity assay (MTT), neuroblastoma SJ-N-KP. It counts as cell-based, human. The conditions noted are these: 72 hrs exposure, medium with non-inactivated FBS (esterase).
Data set [5] concerns IMR5. Put plainly: In vitro cytotoxicity assay (MTT), neuroblastoma IMR-5. Type of data set: cell-based, human. Particulars: 72 hrs exposure, medium with non-inactivated FBS (esterase).
Data set [6] deals with LoVo 109. Put plainly: In vitro cytotoxicity assay (MTT), colon adenocarcinoma LoVo 109. Type of data set: cell-based, human. Particulars: 72 hrs exposure, medium with non-inactivated FBS (esterase).
The conditions of data set [7]: water and physiological solution; cited from earlier work.
Data set [8] deals with tumour cells of neuroectodermal origin. The conditions noted are these: Italian patent application No. MI 2000A001216; cited from earlier work.

Counter-ions that a name gives are not always drawn.

In general, EC50 refers to the concentration at which the effect is half-maximal. A high value points to lower potency in that assay. Consider `CC(N)C(=O)OCc1cc(O)c2c(c1)C(=O)c1cccc(O)c1C2=O` (centres unmarked) [Ex. 7: ALA-NH2, AE Ester with Alanine], for which the values for the EC50 in data set [1] and in data set [2] (72 hrs exposure) were 264 µM and 300 µM, respectively.
For the compound “AE Acetal with Daunosamine [Ex. 13: AED]”, the EC50 in data set [1] stood at 5 µM; in data set [2] (72 hrs exposure) it was 5 µM; in data set [3] it was 10 µM.
`C[C@H](N)C(=O)OCc1cc(O)c2c(c1)C(=O)c1cccc(O)c1C2=O` [Ex. 10: EM9, ala-aloe-emodin trifluoroacetate]: the EC50 in data set [1] was 6.7 µM; in data set [2] (72 hrs exposure), 6.7 µM; in data set [3] it was 5 µM.
Take `C[C@H](N)C(=O)OCc1cc(O)c2c(c1)C(=O)c1cccc(O)c1C2=O` [Ex. 11: ALA, ala-aloe-emodin hydrochloride]: the EC50 in data set [1] (hydrochloride) came out at 200 µM; in data set [1] (listed as Ex. 11: ALA-HCI, hydrochloride), 70.6 µM; in data set [2] (72 hrs exposure, hydrochloride) it was 200 µM; in data set [2] (72 hrs exposure, listed as Ex. 11: ALA-HCI, hydrochloride), 70.6 µM; in data set [3] it was 200 µM.
`O=C(O)CCC(=O)OCc1cc(O)c2c(c1)C(=O)c1cccc(O)c1C2=O` [Ex. 2: AS, mono-(4,5-dihydroxy-9,10-dioxo-9,10-dihydroanthracen-2-ylmethyl)ester succinic acid]: the EC50 came out at 43 µM in data set [1], 40 µM in data set [2] (72 hrs exposure) and 43 µM in data set [3].
Regarding `CC[C@H](C)[C@H](N)C(=O)OCc1cc(O)c2c(c1)C(=O)c1cccc(O)c1C2=O` [Ex. 8: PJ8, AE Ester with Isoleucine], the concentration giving a half-maximal response (EC50) in data set [1] turned out to be 9 µM; in data set [2] (72 hrs exposure), 9 µM; in data set [3], 20 µM.
Consider `O=C(O)c1ccccc1C(=O)OCc1cc(O)c2c(c1)C(=O)c1cccc(O)c1C2=O` [Ex. 4: AF, mono-(4,5-dihydroxy-9,10-dioxo-9,10-dihydroanthracen-2-ylmethyl)ester phthalic acid], for which the EC50 in data set [1] came to 300 µM; in data set [2] (72 hrs exposure), 250 µM; in data set [4], 50 µM; in data set [5], 50 µM; in data set [6], 50 µM.
Turning to `NC(Cc1ccc(O)cc1)C(=O)OCc1cc(O)c2c(c1)C(=O)c1cccc(O)c1C2=O` (centres unmarked) [Ex. 9: TIR-NH2, AE Ester with Tyrosine], the figures for the EC50 in data set [1] and in data set [3] were 96.4 µM and 26 µM, respectively.
On to `O=C1c2cccc(O)c2C(=O)c2c(O)cc(CO)cc21` [Aloe-emodin, aloe-emodin], for which the solubility entry in data set [7] was “hardly soluble in water and in the physiological solution”. The cytotoxicity result in data set [8] is recorded as “specific cytotoxicity to tumour cells of neuroectodermal origin”.
Turning to `O=C(O)COCC(=O)OCc1cc(O)c2c(c1)C(=O)c1cccc(O)c1C2=O` [Ex. 3: ADG, (4,5-Dihydroxy-9,10-dioxo-9,10-dihydroanthracen-2-ylmethoxycarbonylmethoxy) acetic acid], the EC50 turned out to be 10 µM in data set [1] (Homo sapiens); 10 µM in data set [2] (Homo sapiens, IMR-5, 72 hrs exposure); 20 µM in data set [3] (Homo sapiens, LoVo).
As to `O=C1c2cccc(O)c2C(=O)c2c(O)cc(COP(=O)(O)O)cc21` [Ex. 12: AEP, AE Ester with Phosphoric Acid], the EC50 in data set [1] came out at 12 µM; in data set [2] (72 hrs exposure) it was 10 µM; in data set [3], 20 µM.
Regarding `O=C(O)c1ccc(C(=O)OCc2cc(O)c3c(c2)C(=O)c2cccc(O)c2C3=O)c(C(=O)O)c1` [Ex. 5: ABT, 1-(4,5-dihydroxy-9,10-dioxo-9,10-dihydroanthracen-2-ylmethyl)ester 1,2,4-Benzenetricarboxylic acid], the EC50 in data set [1] was 150 µM; in data set [2] (72 hrs exposure) it was 160 µM.
On the same counts, the results for `O=C(O)C=CC(=O)OCc1cc(O)c2c(c1)C(=O)c1cccc(O)c1C2=O` [Ex. 1: AM, mono-(4,5-dihydroxy-9,10-dioxo-9,10-dihydroanthracen-2-ylmethyl)ester but-2-endioic acid] are 270 to 280 µM and 270 to 280 µM.
In the case of `N[C@@H](Cc1c[nH]c2ccccc12)C(=O)OCc1cc(O)c2c(c1)C(=O)c1cccc(O)c1C2=O` [Ex. 6: TRIP, AE Ester with Tryptophan], the EC50 in data set [1] was 8 to 9 µM; in data set [2] (72 hrs exposure), 10 µM; in data set [3] it was 8 to 9 µM.

The values are drawn from patent US7268162B2, “Aloe-emodin derivatives and their use in the treatment of neoplasias” (Universita' Degli Studi di Padova, priority 2001, dated 2007).
